Measured values from publication PMC6396153, “Dechlorination of polychlorobiphenyl degradation metabolites by a recombinant glutathione S‐transferase from Acidovorax sp. KKS102” (FEBS Open Bio, 2019).

Test system: BphK-KKS
Experiment: absorbance at […] nm, non-linear regression
Type: biochemical, Acidovorax sp. KKS102
Conditions: GSH held constant, CDNB varied 0.3-2.1 mM, 50 mM sodium phosphate pH 6.5; read-out: CDNB / K m

Which Km does the source give for `O=[N+]([O-])c1ccc(Cl)c([N+](=O)[O-])c1` [CDNB, 1-chloro-2,4-dinitrobenzene] here?
Its Km is 2580 ± 140 µM.
